Results published in publication PMC8777613, “Effect of Hydroxyl Groups Esterification with Fatty Acids on the Cytotoxicity and Antioxidant Activity of Flavones” (Molecules, 2022).

What was measured:
rat brain homogenate = assay: Lipid peroxidation (MDA/TBA) induced by FeCl2 and ascorbic acid; format: biochemical; settings: for MDA concentration: oxidation by 0.1% FeCl2 and 1 mM ascorbic acid, 1 h 37 °C, control 9.644 ± 1.570
Method: The antioxidant potential of the new flavone derivatives was assessed based on the analysis of malondialdehyde concentration formed as a product of lipid oxidation stimulated by iron (II) ions.
After preparation, the brain was placed on an ice plate and washed with cold 0.9% NaCl. 10% (m/v) brain solution was obtained by homogenization in cold 10 mM TRIS-HCl buffer, pH = 7.5. The homogenate was centrifuged (2000 rpm, 10 min, 4 °C) to obtain supernatant 1 (S1).
100 µM stock solutions of test compounds in DMSO were prepared. The test compound solution was added to a […] S1 homogenate to a final concentration of 10 µM.
The oxidation reaction was induced by adding to the samples with or without the test compounds freshly prepared solutions: 0.1% FeCl2 (0.2 mL) and 1 mM ascorbic acid (0.4 mL). After incubation for 1 h at 37 °C, the reaction was stopped by adding 8.1% sodium dodecyl sulfate (SDS) solution. In order to determine the concentration of MDA, the acetic acid/HCl buffer at pH = 3.4 and 120 μL of 0.8% thiobarbituric acid (TBA) solution at pH = 6 were added to the samples. The samples were incubated for 1 h at 100 °C. After incubation, the samples were cooled on ice and centrifuged for 10 min at 4000 RPM. The absorbance was measured at a wavelength of 532 nm. Blank content: 0.5 mL of acetate buffer + 0.5 mL of TBA solution.
Calculation of malondialdehyde (MDA) concentration (Equation (1)):(1) MDA concentration=∆ A532 nm × 1.56 ×10^−6 [nmol MDA/h/g tissue]

[1] = MTT dye reduction viability test, HaCaT; format: cell-based, human; settings: human; for IC50 at 72 h / viability at 72 h, 10 µM / viability at 72 h, 20 µM / viability at 72 h, 40 µM / viability at 72 h, 60 µM / viability at 72 h, 80 µM / viability at 72 h, 100 µM: HaCaT cells (immortal keratinocytes)
Method: (§1) We have chosen two types of cell culture lines: human prostate cancer cells (PC3) and normal human immortal keratinocyte cells (HaCaT) (Table 1).
(§2) Human prostate cancer cells (PC3) and human immortal keratinocyte cell line from adult human skin (HaCaT) were obtained from American Type Culture Collection (Teddington, UK) and cultured according to its instructions RPMI 1640 (L0490) medium or DMEM (L0102) medium, respectively, in a 95% air and 5% CO2 humidified incubator at 37 °C. Both media (Biowest) were supplemented with 10% fetal bovine serum (FBS), 100 U/mL penicillin and 100 μg/mL streptomycin. 10 mM stock solutions of tested compounds in DMSO were prepared.
(§3) To assess the cells growth inhibition, the MTT dye reduction test was preformed based on the method described by Präbst et al.. Both PC3 and HaCaT cells (1 × 10^3/well) were seeded into 96-well plates and incubated for 24 h to attach to the bottom of the well in appropriate medium (200 μL) and treated with tested compounds (0–100 μM). The medium with compounds was removed after 72 h and MTT (0.5 mg/mL) in fresh growth medium without serum was added to each well. The plates were incubated in dark for 4 h at 37 °C. Then, the solution in each well was removed and refilled with 100 μL DMSO: isopropanol (1:1) to dissolve formazon crystals. The optical density was measured with an UVM 340 (ASYS Hitech GmbH, Austria) microplate reader at 570 nm. Replicates of three wells for each dosage, including vehicle control, were analyzed for each experiment. The experiments were conducted in triplicate. The results are expressed as IC50 values. The value of IC50 was estimated using CompuSyn version 1.0.

[2] = tested on: human prostate cancer cells (PC3); assay: MTT dye reduction viability test, PC3; format: cell-based; settings: for IC50 / viability at 10 µM / viability at 20 µM / viability at 40 µM / viability at 60 µM / viability at 80 µM / viability at 100 µM: Homo sapiens; for IC50: 72 h exposure, MTT, mean ± SD, read-out: Cytotoxic activity IC50, PC3; for viability at 10 µM: PC3, 10 µM; for viability at 10 µM / viability at 20 µM / viability at 40 µM / viability at 60 µM / viability at 80 µM / viability at 100 µM: representative MTT result (Table S1 A); for viability at 20 µM: PC3, 20 µM; for viability at 40 µM: PC3, 40 µM; for viability at 60 µM: PC3, 60 µM; for viability at 80 µM: PC3, 80 µM; for viability at 100 µM: PC3, 100 µM, read-out: Cells viability
Method: as §1, §2, §3

[3] = tested on: human immortal keratinocyte cells (HaCaT); assay: MTT dye reduction viability test, HaCaT; format: cell-based; settings: for IC50: 72 h exposure, MTT, mean ± SD, read-out: Cytotoxic activity IC50, HaCaT
Method: as §1, §2, §3

[4] = 72 h exposure, MTT, mean ± SD, read-out: Cytotoxic activity IC50, HaCaT
[5] = HaCaT, 10 µM, 72 h, representative MTT result (Table S1 B)
[6] = HaCaT, 20 µM, 72 h, representative MTT result (Table S1 B)
[7] = HaCaT, 40 µM, 72 h, representative MTT result (Table S1 B)
[8] = HaCaT, 60 µM, 72 h, representative MTT result (Table S1 B)
[9] = HaCaT, 80 µM, 72 h, representative MTT result (Table S1 B)
[10] = HaCaT, 100 µM, 72 h, representative MTT result (Table S1 B), read-out: Cells viability

Structure (SMILES)	MDA concentration (rat brain homogenate; 10 µM compound)	melting point	IC50 at 72 h [1, 4]	viability at 72 h, 10 µM [1, 5]	viability at 72 h, 20 µM [1, 6]	viability at 72 h, 40 µM [1, 7]	viability at 72 h, 60 µM [1, 8]	viability at 72 h, 80 µM [1, 9]	viability at 72 h, 100 µM [1, 10]	IC50 [2]	viability at 10 µM ([2]; 72 h)	viability at 20 µM ([2]; 72 h)	viability at 40 µM ([2]; 72 h)	viability at 60 µM ([2]; 72 h)	viability at 80 µM ([2]; 72 h)	viability at 100 µM ([2]; 72 h)	IC50 [3]	also measured
CC=CC=CC(=O)Oc1ccc2c(c1)C(=O)CC(c1ccccc1)O2 (stereo not shown) [6-Sorbic-Flavanone, 6-hydroxy-flavanone sorbic ester]	6.938 ± 0.392 mM × 10^−3	129.4 to 130.8 °C	79.8 ± 2.21 µM	98.7%	96.7%	89.6%	75.7%	56.7%	31.4%	54.7 ± 5.25 µM	95.6%	88.7%	82.1%	41.3%	28.7%	32.6%	–	antioxidant potential compared to the original compound (in words) (rat brain homogenate; MDA in rat brain homogenate): slight increase in antioxidant potential
O=c1cc(-c2ccccc2)oc2cc(O)ccc12 [7-Hydroxy-Flavone, 7-hydroxy-flavone, reference compound]	7.702 ± 1.080 mM × 10^−3	–	–	–	–	–	–	–	–	> 100 µM	123%	117%	111%	95.4%	65%	62.7%	–	reduction of the level of MDA compared to the control sample (rat brain homogenate; 10 µM compound, rat brain homogenate): 20.14%; cytotoxic activity towards HaCaT cells (in words) ([3]; HaCaT, 0–100 μM, 72 h): did not exhibit cytotoxic activity; IC50 [1, 4]: > 100 µM; viability at 10 µM ([1]; HaCaT, 10 µM, 72 h, representative MTT result (Table S1 B), read-out: Cells viability): 93.8%; viability at 20 µM ([1]; HaCaT, 20 µM, 72 h, representative MTT result (Table S1 B), read-out: Cells viability): 65.8%; viability at 40 µM ([1]; HaCaT, 40 µM, 72 h, representative MTT result (Table S1 B), read-out: Cells viability): 69.7%; viability at 60 µM ([1]; HaCaT, 60 µM, 72 h, representative MTT result (Table S1 B), read-out: Cells viability): 96.2%; viability at 80 µM ([1]; HaCaT, 80 µM, 72 h, representative MTT result (Table S1 B), read-out: Cells viability): 97.2%; viability at 100 µM [1, 10]: 92.4%; reduction of PC3 cells viability compared to control cells ([2]; PC3, 72 h, concentration not given): 38%
CCCCCCCCC=CCCCCCCCC(=O)Oc1ccc2c(c1)C(=O)CC(c1ccccc1)O2 (stereo not shown) [6-Oleic-Flavanone, 6-hydroxy-flavanone oleic ester]	8.326 ± 0.490 mM × 10^−3	46.2 to 47.1 °C	53.3 ± 6.87 µM	97.8%	70%	75.7%	26.4%	26.5%	26.5%	38.1 ± 3.24 µM	100%	70.9%	41.4%	19.3%	13.3%	6.81%	53.3 ± 6.87 µM	–
CCCCCCCCCCCCCCCCCC(=O)Oc1ccc2c(c1)C(=O)CC(c1ccccc1)O2 (stereo not shown) [6-Stearic-Flavanone, 6-hydroxy-flavanone stearic ester]	7.875 ± 0.343 mM × 10^−3	–	40.6 ± 4.21 µM	95.4%	82.5%	54.7%	47.8%	32.5%	11.7%	> 100 µM	96.5%	106%	99.6%	93.9%	93.6%	93.7%	40.6 ± 4.21 µM	cytotoxic potential in PC3 cells (in words) ([2]; PC3, 0–100 μM, 72 h): no cytotoxic potential
CCCCCCCCC=CCCCCCCCC(=O)Oc1ccc2c(=O)cc(-c3ccccc3)oc2c1 [7-Oleic-Flavone, 7-hydroxy-flavone oleic ester]	8.465 ± 0.834 mM × 10^−3	73.3 to 74.5 °C	44.9 ± 6.44 µM	95.3%	79.3%	51.9%	39.9%	38.7%	44.9%	39.3 ± 2.11 µM	92.2%	80.8%	48.2%	41%	42.2%	38.9%	–	–
CCC=CCC=CCC=CCCCCCCCC(=O)Oc1ccc2c(c1)C(=O)CC(c1ccccc1)O2 (stereo not shown) [6-Linolenic-Flavanone, 6-hydroxy-flavanone linolenic ester]	–	–	80 ± 4.75 µM	95.8%	75.2%	53.3%	38.1%	25.8%	23.8%	51.4 ± 2.8 µM	92.5%	85.9%	79.5%	48%	35.8%	31.5%	44.6 ± 5.89 µM	–
